Laboratory results: patent publication US8901138B2, “Sulfoximine substituted quinazolines for pharmaceutical compositions” (Boehringer Ingelheim International GmbH, priority 2012, dated 2014)

The compounds below were run against T1, MNK2a (Homo sapiens, UniProt Q9HBH9) (assay: MNK2a in vitro kinase assay (assay 1), ADP-Glo). Details: preactivated GST-MNK2a, 20 μM ATP, read-out: MNK2 IC50.
T1 construct: made in house
Type: biochemical
Outline: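 Preactivated GST-MNK2a (10 nM) with eIF4E peptide (25 μM) and ATP (20 μM) in HEPES/DTT/MgCl2 buffer, 90 min at room temperature, final DMSO <3%. ADP formed read by ADP-Glo luminescence and normalised to vehicle and 20 μM reference-inhibitor controls; IC50 from dose-response curves.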

T1 sequence (Q9HBH9 whole entry): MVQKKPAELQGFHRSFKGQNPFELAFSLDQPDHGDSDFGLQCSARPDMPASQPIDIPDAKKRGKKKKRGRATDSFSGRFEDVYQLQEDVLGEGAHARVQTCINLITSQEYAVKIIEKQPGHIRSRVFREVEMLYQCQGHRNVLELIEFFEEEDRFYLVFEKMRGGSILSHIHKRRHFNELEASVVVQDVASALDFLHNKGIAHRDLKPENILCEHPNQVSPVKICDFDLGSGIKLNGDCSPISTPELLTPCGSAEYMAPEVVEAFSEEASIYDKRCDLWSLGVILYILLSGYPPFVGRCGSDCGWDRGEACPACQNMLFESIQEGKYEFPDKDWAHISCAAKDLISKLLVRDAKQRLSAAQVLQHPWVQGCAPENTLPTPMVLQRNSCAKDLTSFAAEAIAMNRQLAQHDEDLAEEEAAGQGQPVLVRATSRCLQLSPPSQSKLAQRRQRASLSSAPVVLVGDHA

SMILES | IC50
Cc1cc(N=S2(=O)CCC2)cc2ncnc(Nc3ccc(F)cc3O[C@H]3CCOC3)c12 [Example 2.98] | 1 nM
CO[C@H]1CC[C@H](Oc2cc(F)ccc2Nc2ncnc3cc(N=S4(=O)CCN(C(C)=O)CC4)cc(C)c23)CC1 [Example 7.2] | 6 nM
CS(C)(=O)=Nc1cc(F)c2c(Nc3cccnc3O[C@@H]3CCCN(CCO)C3)ncnc2c1 [Example 6.11] | 31 nM
Cc1cc(N=S2(=O)CCCC2)cc2ncnc(Nc3ccc(F)cc3O[C@@H]3CCN(S(C)(=O)=O)C3)c12 [Example 6.18] | 1 nM
Cc1cc(N=S2(=O)CCCC2)cc2ncnc(Nc3ccc(F)cc3O[C@@H]3CC[C@@H]4OCC[C@@H]43)c12 [Example 2.125] | 2 nM
CS(C)(=O)=Nc1cc(F)c2c(Nc3ccc(F)cc3O[C@@H]3CCCN(Cc4ncon4)C3)ncnc2c1 [Example 6.12] | 12 nM
Cc1cc(N=S(C)(C)=O)cc2ncnc(Nc3ccc(F)cc3OC3CNOC3)c12 (stereo not drawn) [Example 7.18] | 2 nM
Cc1cc(N=S(C)(=O)C2CCOCC2)cc2ncnc(Nc3ccc(F)cc3O[C@@H]3CO[C@@H]4CCO[C@@H]43)c12 (stereo partly drawn) [Example 2.99] | 5 nM
CO[C@@H]1CCC[C@H]1Oc1cc(F)ccc1Nc1ncnc2cc(N=S(C)(C)=O)cc(C)c12 [Example 1.36] | 2 nM
Cc1cc(N=S(C)(C)=O)cc2ncnc(Nc3ccc(F)cc3O[C@@H]3CCCN(CCO)C3)c12 [Example 6.9] | 5 nM
Cc1cc(N=S(C)(C)=O)cc2ncnc(Nc3ccsc3O[C@@H]3CCOC3)c12 [Example 2.58] | 109 nM
Cc1cc(N=S(C)(C)=O)cc2ncnc(Nc3ccc(F)cc3O[C@@H]3CO[C@H]4[C@@H]3OC[C@@H]4O)c12 [Example 1.1] | 1 nM
Cc1cc(N=S(C)(=O)CCN2CCCC2)cc2ncnc(Nc3ccc(F)cc3O[C@H]3CC[C@H](O)CC3)c12 (stereo partly drawn) [Example 2.107] | 10 nM
Cc1cc(N=S(C)(C)=O)cc2ncnc(Nc3ccc(F)cc3OC3(C)CC3C)c12 (stereo not drawn) [Example 1.33] | 2 nM
COCCS(C)(=O)=Nc1cc(C)c2c(Nc3ccc(F)cc3O[C@@H]3CO[C@H]4[C@@H]3OC[C@H]4O)ncnc2c1 (stereo partly drawn) [Example 2.41] | 6 nM
Cc1cc(N=S(C)(=O)C2CC2)cc2ncnc(Nc3ccc(F)cc3O[C@H]3CCOC3)c12 (stereo partly drawn) [Example 2.103] | 7 nM
CCS(=O)(CC)=Nc1cc(C)c2c(Nc3ccc(F)cc3O[C@H]3CCOC3)ncnc2c1 [Example 2.92] | 13 nM
CS(C)(=O)=Nc1cc(C#N)c2c(Nc3ccc(F)cc3O[C@H]3CCOC3)ncnc2c1 [Example 7.9] | 3 nM
CCS(C)(=O)=Nc1cc(C)c2c(Nc3cccnc3O[C@H]3CC[C@H](O)CC3)ncnc2c1 (stereo partly drawn) [Example 2.44] | 3 nM

Further compounds by falling IC50, results first:

IC50 | SMILES
36 nM | CS(C)(=O)=Nc1cc(F)c2c(Nc3ccc(F)cc3O[C@@H]3CCNC3)ncnc2c1 [Example 3.7]
24 nM | CS(C)(=O)=Nc1cc(F)c2c(Nc3ccc(F)cc3O[C@@H]3CCN(CCO)C3)ncnc2c1 [Example 6.15]
5 nM | CO[C@H]1CC[C@H](Oc2cc(F)ccc2Nc2ncnc3cc(N=S4(=O)CCN(C)CC4)cc(C)c23)CC1 [Example 7.1]
5 nM | Cc1cc(N=S(C)(=O)C2CCOCC2)cc2ncnc(Nc3ccc(F)cc3O[C@H]3CCOC3)c12 (stereo partly drawn) [Example 2.101]
4 nM | CCS(C)(=O)=Nc1cc(C)c2c(Nc3ccc(F)cc3O[C@H]3CC[C@H](OC)CC3)ncnc2c1 (stereo partly drawn) [Example 2.81]
2 nM | CCOc1cc(N=S(C)(C)=O)cc2ncnc(Nc3ccc(F)cc3O[C@@H]3CO[C@H]4[C@@H]3OC[C@H]4OC)c12 [Example 5.5]
2 nM | CO[C@@H]1CO[C@H]2[C@@H]1OC[C@H]2Oc1cc(F)ccc1Nc1ncnc2cc(N=S(C)(C)=O)cc(OCC(F)F)c12 [Example 5.7]
1 nM | CCO[C@@H]1CO[C@H]2[C@@H]1OC[C@H]2Oc1cc(F)ccc1Nc1ncnc2cc(N=S(C)(C)=O)cc(C)c12 [Example 2.7]

These compounds were tested against MNK1a (Homo sapiens, UniProt Q9BUB5) (assay: MNK1 in vitro kinase assay (assay 2), Z'-LYTE). Details: compound concentration of 1 μM.
Chain of MNK1a (Q9BUB5 1-424 isoform Q9BUB5-2): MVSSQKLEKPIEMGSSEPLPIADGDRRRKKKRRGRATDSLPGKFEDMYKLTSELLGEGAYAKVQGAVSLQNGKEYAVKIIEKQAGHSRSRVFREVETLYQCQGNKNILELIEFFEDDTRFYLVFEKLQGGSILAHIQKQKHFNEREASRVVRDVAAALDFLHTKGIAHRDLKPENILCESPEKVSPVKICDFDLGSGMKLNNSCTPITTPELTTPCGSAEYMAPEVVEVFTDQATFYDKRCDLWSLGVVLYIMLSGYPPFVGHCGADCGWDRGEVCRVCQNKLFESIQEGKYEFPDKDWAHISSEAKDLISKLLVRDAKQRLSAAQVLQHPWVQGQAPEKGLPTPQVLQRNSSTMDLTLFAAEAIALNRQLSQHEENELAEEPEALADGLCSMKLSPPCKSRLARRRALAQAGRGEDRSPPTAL
Type: biochemical
Outline: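 Pre-activated GST-MNK1a (13.5-54 ng) with 2 μM Ser/Thr 07 FRET peptide in 50 mM HEPES pH 7.5, 10 mM MgCl2, 2 mM MnCl2, 1 mM EGTA, 1 mM DTT, 1% DMSO; 1 h kinase then 1 h development at room temperature. Coumarin/fluorescein emission ratio gives % phosphorylation; sigmoidal dose-response fit.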

SMILES | inhibition at 1 µM
Cc1cc(N=S2(=O)CCC2)cc2ncnc(Nc3ccc(F)cc3O[C@H]3CCOC3)c12 [Example 2.98] | 95%
CO[C@H]1CC[C@H](Oc2cc(F)ccc2Nc2ncnc3cc(N=S4(=O)CCN(C(C)=O)CC4)cc(C)c23)CC1 [Example 7.2] | 82%
CS(C)(=O)=Nc1cc(F)c2c(Nc3cccnc3O[C@@H]3CCCN(CCO)C3)ncnc2c1 [Example 6.11] | 72%
Cc1cc(N=S2(=O)CCCC2)cc2ncnc(Nc3ccc(F)cc3O[C@@H]3CCN(S(C)(=O)=O)C3)c12 [Example 6.18] | 98%
Cc1cc(N=S2(=O)CCCC2)cc2ncnc(Nc3ccc(F)cc3O[C@@H]3CC[C@@H]4OCC[C@@H]43)c12 [Example 2.125] | 94%
CS(C)(=O)=Nc1cc(F)c2c(Nc3ccc(F)cc3O[C@@H]3CCCN(Cc4ncon4)C3)ncnc2c1 [Example 6.12] | 91%
Cc1cc(N=S(C)(C)=O)cc2ncnc(Nc3ccc(F)cc3OC3CNOC3)c12 (stereo not drawn) [Example 7.18] | 93%
Cc1cc(N=S(C)(=O)C2CCOCC2)cc2ncnc(Nc3ccc(F)cc3O[C@@H]3CO[C@@H]4CCO[C@@H]43)c12 (stereo partly drawn) [Example 2.99] | 96%
CO[C@@H]1CCC[C@H]1Oc1cc(F)ccc1Nc1ncnc2cc(N=S(C)(C)=O)cc(C)c12 [Example 1.36] | 84%
Cc1cc(N=S(C)(C)=O)cc2ncnc(Nc3ccc(F)cc3O[C@@H]3CCCN(CCO)C3)c12 [Example 6.9] | 95%
Cc1cc(N=S(C)(C)=O)cc2ncnc(Nc3ccsc3O[C@@H]3CCOC3)c12 [Example 2.58] | 30%
Cc1cc(N=S(C)(C)=O)cc2ncnc(Nc3ccc(F)cc3O[C@@H]3CO[C@H]4[C@@H]3OC[C@@H]4O)c12 [Example 1.1] | 98%
COCCS(C)(=O)=Nc1cc(C)c2c(Nc3ccc(F)cc3O[C@@H]3CO[C@H]4[C@@H]3OC[C@H]4O)ncnc2c1 (stereo partly drawn) [Example 2.41] | 90%
CCS(=O)(CC)=Nc1cc(C)c2c(Nc3ccc(F)cc3O[C@H]3CCOC3)ncnc2c1 [Example 2.92] | 83%
CS(C)(=O)=Nc1cc(C#N)c2c(Nc3ccc(F)cc3O[C@H]3CCOC3)ncnc2c1 [Example 7.9] | 96%
CCS(C)(=O)=Nc1cc(C)c2c(Nc3cccnc3O[C@H]3CC[C@H](O)CC3)ncnc2c1 (stereo partly drawn) [Example 2.44] | 100%

The remaining lines, values ahead:

inhibition at 1 µM | SMILES
81% | CS(C)(=O)=Nc1cc(F)c2c(Nc3ccc(F)cc3O[C@@H]3CCNC3)ncnc2c1 [Example 3.7]
82% | CS(C)(=O)=Nc1cc(F)c2c(Nc3ccc(F)cc3O[C@@H]3CCN(CCO)C3)ncnc2c1 [Example 6.15]
86% | CO[C@H]1CC[C@H](Oc2cc(F)ccc2Nc2ncnc3cc(N=S4(=O)CCN(C)CC4)cc(C)c23)CC1 [Example 7.1]
93% | Cc1cc(N=S(C)(=O)C2CCOCC2)cc2ncnc(Nc3ccc(F)cc3O[C@H]3CCOC3)c12 (stereo partly drawn) [Example 2.101]
92% | CCS(C)(=O)=Nc1cc(C)c2c(Nc3ccc(F)cc3O[C@H]3CC[C@H](OC)CC3)ncnc2c1 (stereo partly drawn) [Example 2.81]
98% | CCO[C@@H]1CO[C@H]2[C@@H]1OC[C@H]2Oc1cc(F)ccc1Nc1ncnc2cc(N=S(C)(C)=O)cc(C)c12 [Example 2.7]

Same assay, conditions: pre-activated GST-MNK1a

SMILES | IC50
Cc1cc(N=S(C)(=O)CCN2CCCC2)cc2ncnc(Nc3ccc(F)cc3O[C@H]3CC[C@H](O)CC3)c12 (stereo partly drawn) [Example 2.107] | 102 nM
Cc1cc(N=S(C)(C)=O)cc2ncnc(Nc3ccc(F)cc3OC3(C)CC3C)c12 (stereo not drawn) [Example 1.33] | 110 nM
Cc1cc(N=S(C)(=O)C2CC2)cc2ncnc(Nc3ccc(F)cc3O[C@H]3CCOC3)c12 (stereo partly drawn) [Example 2.103] | 82 nM

Other lines, results leading:

IC50 | SMILES
14 nM | CCOc1cc(N=S(C)(C)=O)cc2ncnc(Nc3ccc(F)cc3O[C@@H]3CO[C@H]4[C@@H]3OC[C@H]4OC)c12 [Example 5.5]
43 nM | CO[C@@H]1CO[C@H]2[C@@H]1OC[C@H]2Oc1cc(F)ccc1Nc1ncnc2cc(N=S(C)(C)=O)cc(OCC(F)F)c12 [Example 5.7]
